The record followed here is ChEMBL document CHEMBL5046243, “Odookeanynes A and B, Acetylene-Containing Lipopeptides from an Okeania sp. Marine Cyanobacterium” (J Nat Prod, 2022).

Square brackets hold non-standard residues; d marks the D form. Peptide text beside a SMILES is read from it. * marks the point of attachment. Pyrrolidine(2S-propanoyl) = CCC(=O)[C@@H]1CCCN1*; X2 = C#CCCCC[C@H](C)C[C@@H](C)C(=O)*; NMeI = CC[C@H](C)[C@H](NC)C(=O)O; X1 = C#CCCCCCC[C@@H](C)C(=O)*; NMeV = CN[C@H](C(=O)O)C(C)C

Data set [1] concerns 3T3-L1. Nature of the data set: Cytotoxicity against mouse 3T3-L1 cells assessed as reduction in cell viability at 30 uM in presence of insulin measured after 3 days by MTT assay. Format: toxicity, cell-based. Particulars: 3t3-l1, 72 h, time 3 day. In general terms: Tetrazolium dyes change colour on reduction, which living cells bring about.
A short description of data set [2]: Effect on preadipocyte differentiation in mouse 3T3-L1 cells assessed as lipid droplet accumulation at 10 uM in presence of insulin measured after 9 days by Oil Red O staining based assay. Particulars: time 9 day. Format: functional.

On to `C#CCCCCCC[C@@H](C)C(=O)N(C)[C@H](C(=O)N(C)[C@H](C(=O)N1CCC[C@H]1C(=O)N(C)[C@H](C(=O)N1CCC[C@H]1C(=O)CC)C(C)C)[C@@H](C)CC)C(C)C` (X1-[NMeV][NMeI]P[NMeV]-{Pyrrolidine(2S-propanoyl)}), for which the Activity entry in data set [1] was “Non-Toxic”. For the same compound, in data set [2], the “fold change (FC)” value came out at 1.9.

Turning to `C#CCCCC[C@H](C)C[C@@H](C)C(=O)N(C)[C@H](C(=O)N(C)[C@H](C(=O)N1CCC[C@H]1C(=O)N(C)[C@H](C(=O)N1CCC[C@H]1C(=O)CC)C(C)C)[C@@H](C)CC)C(C)C` (X2-[NMeV][NMeI]P[NMeV]-{Pyrrolidine(2S-propanoyl)}), the Activity entry in data set [1] was “Non-Toxic”. In data set [2], the “fold change (FC)” value came out at 2.1.
